From patent US20240122930A1, “INTEGRIN INHIBITORS AND USES THEREOF IN COMBINATION WITH OTHER AGENTS” (Pliant Therapeutics, Inc., priority 2022, published 2024)
Several values for one entry are separate records, joined by “and”; a condition that tells them apart may be missing. Identical values can stand only once. Entries after “also recorded” stand apart in the source; their conditions may differ.

Legend:
COL1A1 expression = assay: Precision cut lung slices from human IPF explants, COL1A1 expression; type: cell-based
Description: Explanted lung tissue was obtained from human IPF subjects and inflated with agarose as described in the preceding examples. Biopsy cores were obtained from the agarose-inflated lung tissue. The biopsy cores were subjected to precision slicing to obtain several hundred μm thick. Individual slices were distributed in a multiwell culture plate and cultured for […] under control (DMSO) and test compound conditions. The viability of the slices over the course of culturing was confirmed by WST-1 assay of mitochondrial activity.
PCLS from 5-7 idiopathic pulmonary fibrosis (IPF) lung tissue samples were cultured for seven days with one of: DMSO; Compound 5 at 200 nM; nintedanib at 75 nM; pirfenidone at 50 μM; a combination of Compound 5 at 200 nM and nintedanib at 75 nM; a combination of Compound 5 at 200 nM and pirfenidone at 50 μM; or an ALK5 inhibitor at 1 μM. […] FIG. 6D is a bar graph showing relative expression of COL1A1 in precision cut lung slices (PCLS) from idiopathic pulmonary fibrosis (IPF) lung tissue upon exposure to Compound 5, clinical standard of care compounds nintedanib (Nin) and pirfenidone (Pirf), and an ALK5 inhibitor, all versus DMSO control.
PCLS from a single IPF lung tissue sample were cultured for seven days with Compound 5 at concentrations of 200 pM, 2 nM, 60 nM, 200 nM, and 1 μM, along with 0.1% DMSO control and an ALK5 inhibitor at 1 μM. […] COL1A1 expression is also graphed for the PCLS in the presence of 0.1% DMSO control, and an ALK5 inhibitor at 1 μM.

[1] = pSMAD2:SMAD2 ratio in BAL and plasma Cmax in healthy subjects; type: in vivo, human; details: male, human, plasma, 40 mg/day, after the dose on Day 7, subjects of FIG. 8A-8F; read-out: Cmax (peak of the blood plasma concentration)
Method: (§1) In order to evaluate the change of pSMAD2 as a biomarker of TGF-β activity following administration of an integrin inhibitor, and to determine a therapeutically effective dosage and an effective blood plasma Cmax of the integrin inhibitor, healthy subjects were administered Compound 5, a dual selective αVβ6/αVβ1-integrin inhibitor, and the corresponding Cmax levels and decrease in phosphorylation levels and were determined.
(§2) Healthy non-smoking adult males without history of lung disease were selected as subjects and were randomized into 4 cohorts. Broncoalevaolar lavage samples were obtained from all subjects 1 day prior to start of treatment. Cohorts 1 and 2 were administered 20 mg of a compound daily, wherein 3 subjects were administered the dual selective αVβ6/αVβ1-integrin inhibitor (Compound 5) per every 1 subject receiving a placebo compound. Cohorts 3 and 4 were administered 40 mg of a compound daily, wherein 3 subjects were administered the dual selective αVβ6/αVβ1-integrin inhibitor (Compound 5) per every 1 subject receiving a placebo compound. BAL samples and blood samples were taken from all subjects on Day −1 (baseline) and on Day 7 (end of treatment).

[2] = test system: pSMAD2:SMAD2 ratio in BAL; assay: as above; type: in vivo, human
Method: as §1, §2

[3] = test system: PRO-C6, Type VI collagen synthesis neoepitope; assay: Phase 2a clinical trial: serum biomarker PRO-C6; type: in vivo, human; details: IPF participants, 40 to 320 mg, 4 and 12 weeks
Method: Blank columns represent 40 mg Compound 5 dosage. Grid pattern filled columns represent 80 mg Compound 5 dosage. Diagonal line filled columns represent 160 mg Compound 5 dosage. Dot filled columns represent all participants dosed with Compound 5. […] In FIG. 21, LS refers to Least Squares and SEM refers to Standard Error of Mean.
PRO-C3 and PRO-C6, serum biomarkers of type III and VI collagen synthesis, respectively, were previously shown to be elevated in patients with IPF and associated with progressive disease, according to Respir Res. 2019 Jul. 12; 20(1):148. Doi: 10.1186/s12931-019-1118-7, which is herein incorporated by reference in its entirety. Change from baseline was analyzed using a mixed model for repeated measures with terms for treatment group, visit, baseline value, and treatment-by-visit interaction. LS refers to Least Squares; SE refers to Standard Error.

[4] = test system: explanted human lung tissue from patients with idiopathic pulmonary fibrosis; assay: Fibrosis-related gene expression (nCounter Fibrosis Panel) in precision cut lung slices; type: cell-based
Description: Briefly, tissue samples from patients with IPF were acquired at the time of lung transplantation. […] Treated slices were lysed in mRNA-compatible buffer for gene expression analysis. For this study, the lysate from n=6 slices per treatment per lung were pooled for analysis using the nCounter Fibrosis Panel (Nanostring) on the nCounter Max analyzer (Nanostring). This commercially available panel of 770 genes includes genes related to initial tissue damage response, chronic inflammation, proliferation of pro-fibrotic cells, and tissue modification leading to fibrotic disease. Technical quality control and normalization of raw Nanostring mRNA count data was performed using an R framework developed by Bhattacharya et al. (Bhattacharya A. et al., Brief Bioinform. 2021 May 20; 22(3):bbaa163; herein incorporated by reference in its entirety). The R packages limma (see URL www.bioconductor.org/packages/release/bioc/html/limma.html, which is incorporated herein by reference in its entirety) and voom (Law, C.

[5] = test system: participants with idiopathic pulmonary fibrosis (IPF); assay: Phase 2a clinical trial ([…]-IPF): Forced Vital Capacity (FVC) spirometry; type: in vivo, human; details: for Proportion of Participants with FVCpp Decline ≥10%, ITT, FIG. 20: placebo (N=23) 17.4%; for LS Mean (SE) change from Baseline in FVC at Week 12, ITT, Not on SoC subgroup, FIG. 30: placebo (n=7) −28.2; for Proportion of participants with Absolute FVCpp decline ≥10%, ITT, FIG. 31 / Proportion of participants with Relative FVCpp decline ≥10%, ITT, FIG. 29: placebo (n=31) 12.9%; for LS Mean (SE) change from Baseline in FVC at Week 12, mITT, FIG. 27: placebo (n=31) −64.2
[6] = 40 mg/day, after the dose on Day 7, subjects of FIG. 8A-8F
[7] = FIG. 24 Venn region E: only altered by Compound 5 in the absence of pirfenidone
[8] = gene expression, combination vs individual treatment
[9] = single treatment, adj. p-value <0.05

Compound: COCCN(CCCCc1ccc2c(n1)NCCC2)CC[C@H](Nc1ncnc2ccccc12)C(=O)O [Compound 5, (S)-4-((2-methoxyethyl) (4-(5,6,7,8-tetrahydro-1,8-naphthyridin-2-yl)butyl)amino)-2-(quinazolin-4-ylamino) butanoic acid]
- reduction of COL1A1 expression (COL1A1 expression; human IPF PCLS (5-7 tissues), 7 days, Compound 5 at 200 nM alone): 43%
- lung Col1a1 expression, normalized to DMSO control slices (COL1A1 expression; human IPF PCLS, 3 days, 3G9 ≥400 ng/mL, Compound 5 179 nM, ALK5 inhibitor 1 μM): substantial, statistically significant (p<0.01 vs vehicle) decrease
- COL1A1 expression, dose response (COL1A1 expression; human IPF PCLS, 7 days, 200 pM to 1 μM): dose dependent reduction
- reduction of COL1A1 expression (COL1A1 expression; human IPF PCLS, 7 days, Compound 5 at 200 nM in combination with nintedanib at 75 nM): 55%
- reduction of COL1A1 expression (COL1A1 expression; human IPF PCLS, 7 days, Compound 5 at 200 nM in combination with pirfenidone at 50 μM): 49%
- Cmax [1]: > 900 ng/mL
- Cmax (peak of the blood plasma concentration) [2, 6]: 700 to 900 ng/mL and < 700 ng/mL
- PD effect (relative change in pSMAD2:SMAD2 ratio from baseline in BAL) [2, 6]: sustained PD effect; also recorded: transitory PD effect; also recorded: no PD effect
- correlation of plasma Cmax with reduction of pSMAD2:SMAD2 ratio relative to baseline ([2]; 12 h and 24 h post-administration on Day 7): strongly correlated
- Serum PRO-C6, change from baseline relative to placebo [3]: decreased; also recorded: reduced
- Genes Down-regulated with Compound 5 and Pirfenidone Alone or in Combination, region E [4, 7]: COL3A1 and COL6A3 and LOXL1 and MARCO and MMP8 and PLPP4
- Genes Up-regulated with Compound 5 and Pirfenidone Alone or in Combination, region E [4, 7]: APOA2 and CIITA and IFI6 and NOS1 and OAS1 and TTN
- Genes Down-regulated with Compound 5 and Pirfenidone Alone or in Combination, region F ([4]; FIG. 24 Venn region F: altered by Compound 5 or pirfenidone alone, but not by Compound 5 in combination with pirfenidone): CXCR4; also recorded: PECAM1
- Genes up-regulated, Venn region E (FIG. 24) ([4]; IPF precision cut lung slices, 7 days, only altered by Compound 5 in the absence of nintedanib): APOA2 and CCL13 and CIITA and IFI6
- % Reduction APOC2 [4, 8]: −1.20%
- % Reduction CDH2 [4, 8]: 23.87%
- % Reduction COL1A1 [4, 8]: 38.78%
- % Reduction THBS2 [4, 8]: 31.47%
- logFC ALDH7A1 [4, 9]: 0.57
- logFC OAS1 [4, 9]: 0.6104
- LS Mean Change From Baseline in FVC at week 12, On SoC Subgroup (MMRM, ITT) ([5]; 40 mg (N=17), placebo −95.2 mL): -58.3 mL
- Proportion of Participants with FVCpp Decline ≥10%, ITT, FIG. 20 ([5]; 40 mg (N=22), 12 weeks): 18.2%
- LS Mean (SE) change from Baseline in FVC at Week 12, ITT, Not on SoC subgroup, FIG. 30 ([5]; 40 mg (n=5)): -43.5 mL
- Proportion of participants with Absolute FVCpp decline ≥10%, ITT, FIG. 31 ([5]; 40 mg (n=22)): 9.1%
- Proportion of participants with Relative FVCpp decline ≥10%, ITT, FIG. 29 ([5]; 40 mg (n=22)): 18.2%
- Proportion of Participants with FVCpp Decline ≥10%, ITT, FIG. 20 ([5]; 80 mg (N=23), 12 weeks): 8.7%
- LS Mean (SE) change from Baseline in FVC at Week 12, ITT, Not on SoC subgroup, FIG. 30 ([5]; 80 mg (n=4)): 138.5 mL
- Proportion of participants with Absolute FVCpp decline ≥10%, ITT, FIG. 31 ([5]; 80 mg (n=23)): 8.7%
- Proportion of participants with Relative FVCpp decline ≥10%, ITT, FIG. 29 ([5]; 80 mg (n=23)): 8.7%
- LS Mean (SE) change from Baseline in FVC at Week 12, mITT, FIG. 27 ([5]; 80 mg (n=23)): 22.8 mL
- Proportion of Participants with FVCpp Decline ≥10%, ITT, FIG. 20 ([5]; 160 mg (N=22), 12 weeks): 4.5%
- LS Mean (SE) change from Baseline in FVC at Week 12, ITT, Not on SoC subgroup, FIG. 30 ([5]; 160 mg (n=3)): 26.4 mL
- Proportion of participants with Absolute FVCpp decline ≥10%, ITT, FIG. 31 ([5]; 160 mg (n=22)): 4.5%
- Proportion of participants with Relative FVCpp decline ≥10%, ITT, FIG. 29 ([5]; 160 mg (n=22)): 4.5%
- LS Mean (SE) change from Baseline in FVC at Week 12, mITT, FIG. 27 ([5]; 160 mg (n=22)): -28.7 mL
- Participants with a ≥10% absolute decline in FVC over 24 weeks ([5]; 320 mg): no Compound 5-treated participants
- LS Mean (SE) change from Baseline in FVC at Week 12, ITT, Not on SoC subgroup, FIG. 30 ([5]; 320 mg (n=4)): 19.8 mL
- Proportion of participants with Absolute FVCpp decline ≥10%, ITT, FIG. 31 ([5]; 320 mg (n=21)): 0%
- Proportion of participants with Relative FVCpp decline ≥10%, ITT, FIG. 29 ([5]; 320 mg (n=21)): 0%
- LS Mean (SE) change from Baseline in FVC at Week 12, mITT, FIG. 27 ([5]; 320 mg (n=21)): 26.8 mL
- Participants with a decline of ≥10% in percent predicted FVC (FVCpp) ([5]; 320 mg, 12 weeks): No participants
- Reduction of the decline from baseline in FVCpp compared to placebo ([5]; 320 mg, Week 24): 68%
- Average decrease in FVC at 24 weeks, ITT, SoC subgroup, FIG. 35 ([5]; 320 mg, patients on standard of care (pirfenidone or nintedanib), placebo 172.8 mL): 35.0 mL
- Patients showing an improvement in FVC at 24 weeks, ITT, FIG. 36 ([5]; 320 mg, placebo 0%): 50%
- Average decrease in FVC at 24 weeks, ITT, FIG. 34 ([5]; 320 mg, placebo 109.3 mL): 35.9 mL
- Change in FVC percent predicted from baseline at Week 24, ITT, FIG. 37 ([5]; 320 mg, placebo −[…]): −0.8%
- Proportion of participants with FVCpp decline of ≥10% ([5]; 40, 80, 160 mg, 12 weeks): dose-dependent reduction
- Change in FVC from Baseline to Week 12 (MMRM, ITT) ([5]; pooled Compound 5 groups 40-160 mg (n = 67), placebo −74.1 mL): -15.1 mL
- Reduction in FVC decline over 12 weeks compared to placebo ([5]; pooled active groups 40-160 mg): 80%
